What was measured:
[1] = tested on: cholesterol synthesis in human hepatic T9A4 cells; assay: Inhibition test for cholesterol synthesis in presence of 14C-mevalonate (downstream of HMGCoA/mevalonate step); assay type: cell-based
Method: (§1) The human hepatic T9A4 cells were grown in the serum-free LCM medium (Biofluids, Rockville, Md., USA) under 3.5% CO2 at 37° C. The cells were seeded into 24 well plates and incubated at confluency with 1 mM ^14C-acetate (1 mCi/mmol, Amersham) for 20 h in the absence (control) or in the presence of the fermented extract fractions. Cells were also incubated with 1.17 mM ^14C-mevalonate (0.85 mCi/mmol, Amersham) for 20 h in order to evaluate whether the compounds stemming from the microorganisms to be tested have an inhibitory effect downstream the HMGCoA/Mevalonate conversion step.
(§2) Lipid extraction was performed twice by incubation with hexane:isopropanol (3:2) for 30 min at room temperature. The combined extracts were dried under N2, redissolved in hexane and subjected to high performance thin layer chromatography (Merck, Darmstadt, Germany) in a solvent mixture of hexane:diethyl ether:acetic acid (75:25:1). The neo-synthesis of cholesterol was determined by measuring the ^14C-acetate incorporation into the cholesterol with an instant imager (Camberra Packard, Zurich, Switzerland) and expressed as percent of the control.

[2] = tested on: cholesterol synthesis in human hepatic T9A4 cells; assay: Inhibition test for cholesterol synthesis, 14C-acetate incorporation into cholesterol; assay type: cell-based; conditions: 1 mM 14C-acetate, 20 h, liquid fermentation extracts, extract concentration in the medium per row (37-70 μg/ml; lovastatin 0.5 μg/ml)
Method: as §1, §2

SMILES: CC[C@H](C)C(=O)O[C@H]1C[C@@H](C)C=C2C=C[C@H](C)[C@H](CC[C@@H]3C[C@@H](O)CC(=O)O3)[C@H]21 [LOVASTATIN, lovastatin]
- inhibitory effect on cholesterol biosynthesis (in words) ([1]; T9A4 cells, in presence of 14C-mevalonate): does not inhibit cholesterol biosynthesis
- inhibition at 0.5 µg/mL ([1]; human hepatic T9A4 cells, 1.17 mM 14C-mevalonate, 20 h, extract concentration in the medium per row (37-50 μg/ml; lovastatin 0.5 μg/ml)): 0%
- inhibition at 0.5 µg/mL [2]: 56%

— patent US20030133920A1, “Koji molds for preparing cholesterol lowering products” (priority 2000, published 2003)
